Results taken from US7960392B2, “Nitrogen-containing heterocyclic compounds” (Asahi Kasei Pharma Corporation, priority 2008, dated 2011).

Legend:
human EP1 receptor [1] = target: T1, human EP1 receptor (Homo sapiens, UniProt P34995); test: Antagonist activity (SRE-Luciferase reporter activity) using cells expressing human EP1 receptor; format: cell-based; conditions: HEK293 cells stably expressing human EP1 receptor with SRE-Luciferase reporter; PGE2 final concentration 10 nM; 37° C. for 6 hours; read-out: IC50 value, antagonist activity measurement test using the cells expressing human EP1 receptor
T1 construct: expressed in transfected cells
T1 sequence (P34995 1-402): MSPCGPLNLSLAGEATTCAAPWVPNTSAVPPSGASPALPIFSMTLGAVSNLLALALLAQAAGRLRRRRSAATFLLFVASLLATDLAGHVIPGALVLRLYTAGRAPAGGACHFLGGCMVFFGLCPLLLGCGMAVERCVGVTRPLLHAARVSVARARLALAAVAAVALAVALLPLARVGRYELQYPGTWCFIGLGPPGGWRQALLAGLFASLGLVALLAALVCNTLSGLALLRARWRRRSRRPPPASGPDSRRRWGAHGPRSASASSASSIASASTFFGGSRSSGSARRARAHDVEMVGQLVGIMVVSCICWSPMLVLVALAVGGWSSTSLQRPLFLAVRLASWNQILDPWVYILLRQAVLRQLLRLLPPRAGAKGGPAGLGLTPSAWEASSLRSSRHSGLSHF
Procedure: (§1) Measurement of an Antagonist Activity by Using Cells Expressing Human EP1 Receptor
In order to investigate the EP1 receptor antagonist activity of the compounds of the present invention, a reporter activity was measured by using HEK293 cells in which human EP1 receptor has been stably expressed.
As a result of searching Refseq Database for prostaglandin E receptor, genetic information of human EP1 (NM_000955) receptor was obtained. Based on this sequence information, human EP1 receptor gene was cloned by PCR using human cDNA as a template and by other general method to give human EP1 receptor. Then, HEK293 in which the receptor is stably expressed was established, together with a reporter gene (SRE-Luciferase) in which serum responsible element (SRE) is added at the upstream region of firefly luciferase gene. The resulting cells were added to a 96 well plate (5×10^4 cells/well) and cultured for one day. To the plate, PGE2 (200 nM, final concentration 10 nM) and the test compound (in an amount of 1/20, 20× of the final concentration) were added to initiate the reaction. After allowing the reaction to proceed at 37° C. for 6 hours, the medium was aspirated off, added with a luminescent agent and the reporter activity was measured.

human EP1 receptor [2] = target: T1, human EP1 receptor; test: Antagonist activity (intracellular Ca2+ assay) using cells expressing human EP1 receptor; format: cell-based; conditions: HEK293 cells stably expressing human EP1 receptor; inhibition of increase in intracellular Ca2+ concentration by PGE2 (10 nM); Fura 2-AM
Procedure: as §1
In order to investigate the EP1 receptor antagonist activity of the compounds of the present invention, intracellular Ca^2+ was measured by using HEK293 cells in which human EP1 receptor has been stably expressed.
Cells expressing human EP1 receptor were suspended in an assay buffer to the concentration of 5×10^6 cells/ml, added with Puronic F-127 (final concentration 0.2%), and Fura 2-AM (final concentration 5 uM), followed by incubation at 37° C. for 30 minutes. After washing twice with the assay buffer, the cells were again suspended in the assay buffer to 1×10^6 cells/60 ul, and then transferred to a 96 well UV plate (1×10^6 cells/60 ul/well). Thereafter, by using a fluorescent chemical screening system (FDSS4000, Hamamatsu Photonics K.K.), intracellular Ca^2+ concentration was measured after adding 20 ul of each of the test compounds and PGE2 (5× of the final concentration for both). Ca^2+ concentration was measured by determining fluorescence intensity after irradiation with two excitation wavelengths, i.e., 340 and 380 nm.
Furthermore, EP1 antagonist activity was calculated as a ratio (%) of inhibiting increase in intracellular Ca^2+ concentration by PGE2 (10 nM).
Assay buffer: 20 mM HEPES/KOH (pH 7.4), 115 mM NaCl, 5.4 mM KCl, 0.8 mM MgCl2, 0.8 mM CaCl2, 13.8 mM D-glucose, 0.1% BSA

human EP1 receptor [3] = target: T1, human EP1 receptor; test: Receptor binding test ([3H]PGE2 binding inhibition) using cells expressing human EP1 receptor; conditions: membrane fraction of HEK293 cells stably expressing human EP1 receptor; [3H]PGE2 1 nM; 30° C. for 90 minutes; Ki=IC50/(1+[C]/Kd)
Procedure: Receptor Binding Test Using Cells Expressing Human EP1 Receptor
Inhibitory activity of the test compounds on binding of [^3H]PGE2 in HEK293 cells stably expressing human EP1 receptor was measured.
HEK293 cells which stably express human EP1 receptor were established by using the gene for human EP1 receptor, and then a membrane fraction was prepared therefrom. Thus-prepared membrane fraction was incubated at 30° C. for 90 minutes with a reaction solution (200 μL/well) which includes the test compound and [^3H]PGE2. Upon the completion of the reaction, the reaction solution was aspirated off under reduced pressure, and the [^3H]PGE2 bound to the membrane fraction was trapped by using Unifilter Plateg F/C (manufactured by Packard) and the bound radioactivity was counted with a liquid scintillator.
Kd value was obtained from a Scatchard plot. Non-specific binding was obtained from the binding in the presence of an excess amount (10 μM) of non-labeled PGE2. For the measurement of an inhibitory activity of the test compound on [^3H]PGE2 binding, [^3H]PGE2 (1 nM) and various concentrations of the test compound were added. Meanwhile, for all of the reactions, the buffer as described below was used.
Buffer;10 mM MES/NaOH (pH 6.0), 10 mM MgCl2, 1 mM EDTA, 0.1% BSA
Dissociation constant of the compounds, i.e., Ki, was obtained according to the following equation. […]

female SD rat = test: Micturition interval prolongation in an anesthetized rat-II; format: in vivo; conditions: urethane-anesthetized female SD rat; 0.2% acetic acid in physiological saline infused to the bladder; administered to the left femoral vein
Procedure: Micturition Interval Prolongation in an Anesthetized Rat-II
Activity of prolonging micturition interval in an anesthetized rat was determined with reference to the method established by Maggi, et al. (Eur. J. Pharmacol. 145, p. 105-112 (1988)). Specifically, a female SD rat was anesthetized with urethane and fixed in a flat position, and a catheter was inserted through an external urethral opening. Using a three-way stop cock, it was connected to a pressure transducer and a syringe pump. While infusing physiological saline including 0.2% acetic acid to the bladder at constant rate, cystometrogram was recorded. After confirming stabilized micturition interval, micturition threshold pressure and maximal voiding pressure, a solvent or the compound to be tested was administered to the left femoral vein and an activity of prolonging micturition interval was determined as an efficacy of the drug compound. Each group included five animals.

male SD rat = test: Micturition interval prolongation in an awaken rat-II; format: in vivo; conditions: cystitis induced by 0.3% acetic acid, intravenous administration, 60 minutes post- vs 30 minutes pre-administration
Description: Micturition Interval Prolongation in an Awaken Rat-II As a test animal, a male SD rat (Charles River Corporation, Japan) was used. The rat was anesthetized by isofluran inhalation (nitrous oxide:oxygen=7:3), and being laid on its stomach, it remained anesthetized by 2% isofluran inhalation. Then, an incision was made at the center region of the abdomen, and the bladder was exposed. A small incision was made to the vertex region of the bladder, and a polyethylene tube (PE-50: Becton Dickinson) was inserted to the bladder and fixed. One end of a cannula was subcutaneously directed to the backside of the animal, and after fixing the cannula to the abdomen wall, the incision was sealed. The cannula directed to the backside was connected to a seibel and the middle region was protected with a stainless spring. […] Then, through one end of the tube that had been inserted to the bladder, physiological saline warmed to 37° C. was injected at the rate of 3.0 mL/hr using a three-way stop cock, while the other end was connected to a pressure transducer and cystometrogram was recorded continuously with pressure amplification. The discharged urine was collected in a vessel placed on a digital balance and change in the urine weight was measured at the same time. […]

IC50 (human EP1 receptor [1]) | IC50 (human EP1 receptor [2]) | SMILES | other results
300 to 1000 nM |  | Cc1c(-c2ccccc2)nn(Cc2nc(C(=O)O)cs2)c1-c1ccccc1 [Exp. 14, 2-{(4-Methyl-3,5-diphenyl-1H-pyrazol-1-yl)methyl}thiazole-4-carboxylic acid] | 
100 to 300 nM | 1000 to 3000 nM | O=C(O)c1csc(-n2nc(-c3ccccc3O)cc2-c2ccccc2)n1 [Exp. 20] | 
≤ 100 nM | 300 to 1000 nM | Cc1c(-c2ccccc2)nn(-c2nc(C(=O)O)cs2)c1-c1ccccc1 [Exp. 30] | Ki (human EP1 receptor [3]): ≤ 300 nM; Micturition interval prolonging activity (female SD rat): 25.8%
≤ 100 nM | ≤ 300 nM | O=C(O)c1csc(-n2nc(-c3ccccc3)c(Br)c2-c2ccccc2)n1 [Exp. 38] | 
≤ 100 nM |  | Cc1c(-c2ccccc2)nn(-c2nc(C(=O)O)cs2)c1-c1cccc(F)c1 [Exp. 44] | 
≤ 100 nM |  | Cc1c(-c2ccccc2)nn(-c2nc(C(=O)O)cs2)c1-c1cc(F)cc(F)c1 [Exp. 80] | 
100 to 300 nM |  | Cc1c(-c2ccccc2)nn(-c2nc(C(=O)O)cs2)c1-c1cc(F)ccc1F [Exp. 88] | 
≤ 100 nM |  | Cc1c(-c2ccccc2)nn(-c2nc(C(=O)O)cs2)c1-c1ccsc1 [Exp. 92] | 
≤ 100 nM | 300 to 1000 nM | Cc1c(-c2ccccc2)nn(-c2nc(C(=O)O)cs2)c1-c1ccco1 [Exp. 94] | 
≤ 100 nM |  | Cc1c(-c2ccccc2)nn(-c2nc(C(=O)O)cs2)c1-c1cccc2cccnc12 [Exp. 105] | 
≤ 100 nM | ≤ 300 nM | Cc1c(-c2ccccc2)nn(-c2nc(C(=O)O)cs2)c1C1=CCCCO1 [Exp. 111] | 
≤ 100 nM | ≤ 300 nM | O=C(O)c1csc(-n2nc(-c3ccccc3)c3c2-c2ccccc2C3)n1 [Exp. 114] | 
300 to 1000 nM |  | Cc1c(-c2ccccc2)nn(/C=C\c2nc(C(=O)O)cs2)c1-c1ccccc1 [Exp. 127] | 
100 to 300 nM |  | Cc1c(-c2ccccc2)nn(/C=C/c2nc(C(=O)O)cs2)c1-c1ccccc1 [Exp. 128] | 

The remaining lines, values behind:

SMILES | IC50 (human EP1 receptor [1]) | IC50 (human EP1 receptor [2]) | other results
Nc1c(-c2ccccc2)nn(-c2nc(C(=O)O)cs2)c1-c1ccccc1 [Exp. 35] | ≤ 100 nM | ≤ 300 nM | micturition volume (male SD rat): increase in micturition volume; prolongation in micturition interval (male SD rat): at least 30%; Ki (human EP1 receptor [3]): ≤ 300 nM
O=C(O)c1csc(-n2nc(-c3ccccc3)c(F)c2-c2ccccc2)n1 [Exp. 36] | ≤ 100 nM | 300 to 1000 nM | 
O=C(O)c1csc(-n2nc(-c3ccccc3)c(Cl)c2-c2ccccc2)n1 [Exp. 37] | ≤ 100 nM | 300 to 1000 nM | 
COc1ccccc1-c1c(C)c(-c2ccccc2)nn1-c1nc(C(=O)O)cs1 [Exp. 42] | 300 to 1000 nM |  | 
Cc1c(-c2ccccc2)nn(-c2nc(C(=O)O)cs2)c1-c1cccc(O)c1 [Exp. 48] | 100 to 300 nM |  | 
Cc1c(-c2ccccc2)nn(-c2nc(C(=O)O)cs2)c1-c1ccc(F)cc1 [Exp. 54] | ≤ 100 nM |  | 
Cc1c(-c2ccccc2)nn(-c2nc(C(=O)O)cs2)c1-c1cc(F)c(F)c(F)c1 [Exp. 90] | 100 to 300 nM |  | 
Cc1c(-c2ccccc2)nn(-c2nc(C(=O)O)cs2)c1-c1cccs1 [Exp. 91] | 100 to 300 nM |  | 
Cc1c(-c2ccccc2)nn(-c2nc(C(=O)O)cs2)c1-c1ccoc1 [Exp. 95] | ≤ 100 nM | 300 to 1000 nM | 
O=C(O)c1csc(-n2nc3c(c2-c2ccccc2)CCc2ccccc2-3)n1 [Exp. 116] | ≤ 100 nM | ≤ 300 nM | 
O=C(O)c1csc(-n2nc(-c3ccccc3)c3oc4ccccc4c32)n1 [Exp. 117] | ≤ 100 nM |  | 
